Results on one molecule are retold here after patent US9232792B2, “Method for promoting plant growth” (SUMITOMO CHEMICAL COMPANY, LIMITED, priority 2011, dated 2016).

The structures appear in SMILES notation.

What all share (format): in vivo
The subject of assay [1] is Rice (cultivar: Nipponbare). As to the kind of experiment: Test Example 2: reduction of low-temperature stress by immersion treatment of rice. As to conditions: 1 ppm in hydroponic solution; 4° C. for 5 days, then 4 days at 25° C. The method, then: (§1) Rice (cultivar: Nipponbare)
A necessary amount of rice seeds was immersed in an aqueous solution of 1,000 ppm of Benlate, and incubated at 30° C. overnight under dark conditions. The aqueous solution of Benlate was replaced with distilled water, and the seeds were further incubated at 30° C. overnight under dark conditions to stimulate the germination of the seeds. A filter paper was placed on the holes of a plug tray having 406 holes, and the rice seeds obtained after the stimulation of germination were sown on the filter paper. To the rice seeds was added a kimura B solution for hydroponics (see Plant Science 119: 39-47 (1996)) at ½ concentration, and cultivated for 5 days in an artificial weather control room under the following conditions: • temperature: daytime 28° C./night 23° C., humidity: 70%, illuminance: 8,500 lux, and day length: 12 hours. <Compound Treatment> […]
Four (4) days after the cultivation, the overground part of each rice plant in the treated group was taken a photograph, and the area of a green portion in the obtained image data was measured with image analysis software Win ROOF (manufactured by MITANI CORPORATION) to determine the green area of the overground part of the plant. In the treated group, the experiment was performed in duplication and the average value of the green area per individual was calculated. […]

The test system of the next assay is Wheat (cultivar: Apogee). As to the kind of experiment: Test Example 6: reduction of high-temperature stress by spraying treatment of wheat. As to conditions: 36° C./32° C. for 7 days, 90 days after stress. How it is done: Five wheat seeds were sown in the culture soil (AISAI) in each plastic pot and cultivated for 28 days in an artificial weather control room under the conditions of a temperature of 18° C. in daytime/15° C. in night, and an illuminance of 7,000 lux. Before the stress test, 3 individuals per pot were removed.
To 0.5 mg of the present compound 1 were added 120 mg of a mixture (weight ratio 1:1) of white carbon and ammonium polyoxyethylene alkyl ether sulfate and 300 μl of water. The mixture was finely ground by a wet grinding method to obtain a flowable formulation of the present compound 1. This flowable formulation was diluted with 50 ml or 500 ml of water. The mixture was diluted with RINO (manufactured by NIHON NOHYAKU CO., LTD) as a spreading agent to 5,000-fold dilution to obtain a spray solution containing 10 ppm or 1 ppm of the present compound 1. A sufficient amount of the spray solution was applied to the wheat seedlings by using an automatic spraying machine.
In addition, a flowable formulation without the present compound 1 was prepared and then sprayed. This is called as a non-treated group.
The tested plants at 28 days after the sowing were cultivated for 7 days in an artificial weather control room under the conditions of a temperature of 36° C. in daytime/32° C. in night, a humidity of 50% in daytime/60% in night, an illuminance of 7,000 lux, and a day length of 12 hours.
After the high-temperature stress treatment, the plants were cultivated for 4 days in an artificial weather control room under the conditions of a temperature of 18° C. in daytime/15° C. in night, and a illuminance of 7,000 lux. Then, 90 days after the high-temperature stress treatment, the number and the weight of seeds in ears of the tested plants in 7 or 8 pots were measured, and the average values of the number and the weight of seeds per one ear were calculated. As a result, the number and the weight of seeds in the wheat plants treated with the present compound 1 at a concentration of 1 ppm or 10 ppm were much larger those in the non-treated group, in which the wheat plants were not treated with the present compound 1.

The test system of assay [2] is Rice (cultivar: Nipponbare). As to the kind of experiment: Test Example 1: promotion of root growth in hydroponics of rice. Conditions: 1 ppm in hydroponic solution; 3 days germination + 3 days cultivation. How it is done:
as §1
DMSO solutions containing each of the present compounds 1 to 3 at 10,000 ppm were prepared. A 1/10,000 volume of each DMSO solution containing each of the present compounds 1 to 3 at 10,000 ppm was added to a Hoagland solution for hydroponics at ¼ concentration (Hoagland and Arnon, California Agricultural Experiment Station 1950 Circular 347 pp. 34) to obtain a solution for hydroponics containing each of the present compounds 1 to 3 at 1 ppm. These solutions were used in the treated-group.
In a non-treated group, a solution for hydroponics obtained by adding a Hoagland solution for hydroponics at ¼ concentration to a 1/10,000 volume of DMSO was used.
The rice seeds were immersed in an aqueous solution of 1% sodium hypochlorite for 10 minutes, followed by 70% ethanol solution to sterilize their surfaces. After that, the seeds were washed with distilled water. The sterilized seeds were immersed in each solution for hydroponics containing the test compound at the given concentration, and incubated at a temperature of 28° C. for 3 days under dark conditions to stimulate the germination of the seeds.
Then, 30 ml of each solution for hydroponics containing the test compound at the given concentration was dispensed into a plastic tube (20 mm in diameter×113 mm in height) covered with a cardboard on the lateral surface for blocking a light. A float made of a styrene board and a vinyl mesh was placed on the water surface of each solution for hydroponics, and the rice seeds obtained after the stimulation of germination were placed on the float. The seeds were cultivated for 3 days under the conditions of an illuminance of 4,000 lux at the top of the tube, a temperature of 26° C., a humidity of 50%, and a day length of 16 hours.
The root length of the rice seedlings obtained after the cultivation was measured by using WinRHIZO system (manufactured by REGENT INSTRUMENTS). The average value of the root length in the treated group was calculated from the measurement values of 4 or 5 individuals. […]

With `O=C(O)c1cc2cc(C(F)(F)F)ccc2s1` [The present compound 1, 5-(trifluoromethyl)benzo[b]thiophene-2-carboxylic acid], in assay [1], the “green area of the overground part of the plant vs non-treated group” value is “much larger”. In the assay with Wheat (cultivar: Apogee) (spray 1 ppm), the “number of seeds per ear vs non-treated group” value is “much larger” and the “weight of seeds per ear vs non-treated group” value is listed as “much larger”. In addition, in the assay with Wheat (cultivar: Apogee) (spray 10 ppm), the “number of seeds per ear vs non-treated group” value is “much larger” and the “weight of seeds per ear vs non-treated group” value was “much larger”. In assay [2], the “root length of the rice seedlings vs non-treated group” value is recorded as “much longer”.
